According to US6500610B1, “Methods for identifying compounds for inhibiting of neoplastic lesions, and pharmaceutical compositions containing such compounds” (Cell Pathways, INC, priority 1997, dated 2002):
Where two headings read alike, the source gives them in different places.

Assays:
[1] = system: SW-480 colon adenocarcinoma cells; assay: Apoptosis fold induction / DNA fragmentation protocol
[2] = system: cGMP PDE from human colon HT-29 cultured tumor cells; assay: cGMP PDE inhibition assay; type: biochemical
HT-29 cells [3] = assay: cGMP and cAMP levels in HT-29 cells by radioimmunoassay; type: cell-based, human; conditions: HT-29 cells treated 30 minutes
HT-29 cells [4] = assay: Apoptosis and necrosis by morphology (acridine orange, ethidium bromide) in HT-29; type: cell-based, human
Description: Apoptosis occurs naturally during normal tissue turnover and during embryonic development of organs and limbs. Apoptosis also is induced by cytotoxic T-lymphocytes and natural killer cells, by ionizing radiation and by certain chemotherapeutic drugs. Inappropriate regulation of apoptosis is thought to play an important role in many pathological conditions including cancer, AIDS, or Alzheimer's disease, etc. Compounds can be screened for induction of apoptosis using cultures of tumor cells maintained under conditions as described above. Treatment of cells with test compounds involves either pre- or post-confluent cultures and treatment for two to seven days at various concentrations. Apoptotic cells are measured in both the attached and “floating” compartments of the cultures. […]
Apoptotic and necrotic cell death was determined previously (Duke and Cohen, In: Current Protocols in Immunology, 3.17.1 -3.17.16, New York, John Wiley and Sons, 1992). […]
The apoptosis inducing activity for a series of phosphodiesterase inhibitors was determined. […] Apoptosis and necrosis were determined morphologically after acridine orange and ethidium bromide labeling in accordance with the assay described, supra.

HT-29 cells [5] = assay: Growth inhibition, viable cell count after trypan blue staining; type: cell-based, human; conditions: HT-29, 120 μM
Procedure: Growth inhibition (15A top) was measured by counting viable cells after trypan blue staining. Apoptosis (15B bottom) was measured by morphological determination following staining with acridine orange and ethidium bromide as described previously (Duke and Cohen, in: Current Protocols in Immunology, 3.17.1-3.17.16, New York, John Wiley and Sons, 1992). […] All data were collected from the same experiment.

[6] = system: premalignant lesions in mouse mammary gland organ culture; assay: Mammary gland organ culture model; type: cell-based
Description: Test compounds identified by the above methods can be tested for antineoplastic activity by their ability to inhibit the incidence of pre-neoplastic lesions in a mammary gland organ culture system. This mouse mammary gland organ culture technique has been successfully used by other investigators to study the effects of known antineoplastic agents such as certain NSAIDs, retinoids, tamoxifen, selenium, and certain natural products, and is useful for validation of the screening method of the present invention.
For example, female BALB/c mice can be treated with a combination of estradiol and progesterone daily, in order to prime the glands to be responsive to hormones in vitro. The animals are sacrificed, and thoracic mammary glands are excised aseptically and incubated for ten days in growth media supplemented with insulin, prolactin, hydrocortisone, and aldosterone. DMBA (7,12 dimethylbenz(a)anthracene) is added to medium to induce the formation of premalignant lesions. Fully developed glands are then deprived of prolactin, hydrocortisone, and aldosterone, resulting in the regression of the glands but not the pre-malignant lesions.
The test compound is dissolved in DMSO and added to the culture media for the duration of the culture period. At the end of the culture period, the glands are fixed in 10% formalin, stained with alum carmine, and mounted on glass slides. The incidence of forming mammary lesions is the ratio of the glands with mammary lesions to […]. The incidence of mammary lesions in test compound treated glands is compared with that of the untreated glands.
The extent of the area occupied by the mammary lesions can be quantitated by projecting an image of the gland onto a digitation pad. The area covered by the gland is traced on the pad and considered as 100% of the area. The space covered by each of the non-regressed structures is also outlined on the digitization pad and quantitated by the computer.
Mammary gland organ culture experiment were performed as previously described (Mehta and Moon, Cancer Research, 46:5832-5835, 1986). […]

[7] = biological target: T1, cGMP binding sites of the GST-cGB-PDE5 Protein (Homo sapiens, UniProt O76074); assay: cGMP binding assay with GST-cGB-PDE5 fusion protein; conditions: 3H-cGMP 2 μM
T1 construct: made in house; host or cells: E. coli BL21 (DE3)

[8] = biological target: T2, novel cGMP-specific PDE (Peak B) from SW480 cells (Homo sapiens, UniProt O00408); assay: cGMP hydrolysis inhibition, novel PDE peak B (Section IA) from SW480; type: biochemical; conditions: peak B from SW480, FPLC, 0.25 μM cGMP
T2 construct: IC50 Peak B (μM)

[9] = system: novel Peak B from HTB-26 breast cancer cell line; assay: cGMP PDE activity of peak B from HTB-26; type: biochemical; conditions: peak B from HTB-26, 0.25 μM cGMP
Procedure: (§1) The novel Peak B was also isolated from two other neoplastic cell lines, a breast cancer cell line, HTB-26 and a prostate cancer cell line, LnCAP by a procedure similar to the one above used to isolate it from SW480. The protocol was modified in several respects. To provide even greater reproducibility to allow comparison of different cell lines, a Pharmacia AKTA FPLC was used to control sample loading and elution on an 18 mL DEAE TrisAcryl M column. SW840 was run by this same procedure multiple times to provide a reference of peak B. 200-400 million cells of SW480 were used for the profiles. 70 million cells of LnCAP were used for a profile (see FIGS. 22 and 23), and in a separate experiment 32 million cells of HTB-26 were used for a profile (see FIGS. 20 and 21). After re-suspending cells in homogenization buffer, samples were manually homogenized. FPLC buffer A was 8 mM TRIS-acetate, 5 mM Mg acetate, 0.1 mM EDTA, pH 7.5 and buffer B was 8 mM TRIS-acetate, 5 mM Mg acetate, 0.1 mM EDTA, 1 M Na acetate, pH 7.5. Supernatants were loaded onto the column at 1 mL per minute, followed by a wash with 60 mL buffer A at 1 mL per minute. A gradient was run from 0-15% buffer B in 60 mL, 15-50% buffer B in 60 mL, and 50-100% buffer B in 16 mL. During the gradient 1.5 mL fractions were collected.

[10] = system: novel Peak B from LnCAP prostate cancer cell line; assay: cGMP PDE activity of peak B from LnCAP; type: biochemical; conditions: 0.25 μM cGMP
Procedure: as §1

HT-29 cells [11] = assay: Growth inhibition, SRB assay, HT-29; type: cell-based, human
[12] = system: SW-480 colon adenocarcinoma cells
[13] = biological target: T3, cyclooxygenase (Type 1), COX-I (Ovis aries, UniProt P05979); assay: COX inhibition assay, purified cyclooxygenase
T3 sequence (P05979 25-600): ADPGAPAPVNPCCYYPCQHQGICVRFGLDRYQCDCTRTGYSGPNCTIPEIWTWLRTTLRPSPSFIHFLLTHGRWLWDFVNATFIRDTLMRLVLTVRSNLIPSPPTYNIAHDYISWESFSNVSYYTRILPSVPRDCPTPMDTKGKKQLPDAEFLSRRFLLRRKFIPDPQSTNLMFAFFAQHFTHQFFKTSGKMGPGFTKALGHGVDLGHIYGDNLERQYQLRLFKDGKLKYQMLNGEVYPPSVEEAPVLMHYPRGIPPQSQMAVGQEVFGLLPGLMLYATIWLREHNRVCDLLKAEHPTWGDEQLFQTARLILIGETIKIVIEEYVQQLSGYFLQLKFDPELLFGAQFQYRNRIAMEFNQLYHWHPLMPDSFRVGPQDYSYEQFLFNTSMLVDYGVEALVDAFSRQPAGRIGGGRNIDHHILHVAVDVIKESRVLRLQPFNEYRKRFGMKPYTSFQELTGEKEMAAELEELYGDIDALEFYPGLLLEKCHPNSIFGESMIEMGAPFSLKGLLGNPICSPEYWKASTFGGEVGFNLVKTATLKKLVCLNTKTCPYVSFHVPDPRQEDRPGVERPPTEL

[14] = system: protein kinase G (PKG) activity in HCT116 colon cancer cells; assay: PKG activity assay of lysates of drug-treated HCT116 cells; type: cell-based
Description: To test the effect of cGMP-specific PDE inhibition on neoplasia containing the β-catenin mutation, HCT116 colon cancer cells were employed. HCT116 is known to contain the β-catenin mutation, but is known not to contain the APC mutation.
The same procedure is used to grow the HCT116 cells as is used in the SW480 procedure described above. In this experiment, only exisulind and controls were used.

β-catenin in SW480 cells = assay: Western blot of β-catenin in SW480 cells; type: cell-based, human; conditions: SW480, 200, 400 or 600 μM, 48 hours
Procedure: SW480 cells treated with exisulind as described previously are harvested from the microfuge tubes by rinsing once with ice-cold PBS. The cells are lysed by modified RIPA buffer for 15 minutes with agitation. The cell lysate is spun down in a cold room. The supernatants are transferred to fresh microcentrifuge tubes immediately after spinning. BioRad DC Protein Assay (Temecula, Calif.) is performed to determine the protein concentrations in samples. The samples are normalized for protein concentration, as described above.
50 μg of each sample is loaded to 10% SDS gel. SDS-PAGE is performed, and the proteins then are transferred to a nitrocellulose membrane. The blotted nitrocellulose membrane are blocked in freshly prepared TBST containing 5% nonfat dry milk for one hour at room temperature with constant agitation.
SW480 cells were treated with exisulind or vehicle (0.1% DMSO) for 48 hours. 50 μg supernatant of each cell lysates were loaded to 10% SDS-gel and blotted to nitrocellulose membrane, and the membrane was probed with rabbit-anti-β-catenin and rabbit anti-PKG antibodies.
This observation was made by culturing SW480 cells with either 200, 400 or 600 μM exisulind or vehicle (0.1% DMSO). The cells are harvested 48 hours post treatment and processed for immunoblotting. Immuno-reactive protein can be detected by Western blot. […]

patients = assay: Safety evaluation in exisulind clinical trials; type: in vivo
Procedure: In these exisulind trials and several others involving the drug in other indications, safety was evaluated by monitoring adverse events (AEs), clinical laboratory tests (hematology, serum chemistry, and urinalysis), vital signs (blood pressure, pulse rate, respiratory rate, temperature, and weight), physical examination, and upper endoscopy.

In the case of `CCCCCC[C@@H]([C@@H](C)O)n1cnc2c(N)ncnc21` (racemic) [EHNA], the “Fold induction at 100 μM (apoptosis)” value [1] is reported as <2.0 fold.

In the case of `CSc1ccc(/C=C2/C(C)=C(CC(=O)O)c3cc(F)ccc32)cc1` [Sulindac sulfide], the “cGMP PDE % Inhibition at 10 μM” value [2] is reported as 97%, the “increase of levels of cGMP” value (HT-29 cells [3]) is reported as “greater than 50%” and the “levels of cAMP” value (HT-29 cells [3]) is reported as “unaffected”. The “apoptosis, time course” value (HT-29 cells [4]; HT-29, 120 μM) was “accompanied by an increase in apoptosis”, the “apoptotic and necrotic cell death” value (HT-29 cells [4]; HT-29, treated six days) was “capable of causing apoptotic cell death without inducing necrosis” and the “growth inhibition, viable cell count time course” value (HT-29 cells [5]) was “capable of inhibiting tumor cell growth”. For the same compound, the “inhibition of formation of premalignant lesions” value [6] was “inactive” and the “competition with cGMP in binding of GST-cGB-PDE5” value (“competition with cGMP in binding” for short) [7] was “None of the PDE5 inhibitors showed any competition with cGMP”.

For `O=C([O-])C1CCN(c2nc(NCc3ccc4c(c3)OCO4)c3cc(Cl)ccc3n2)CC1.[Na+]` [Compound E4021], the “sensitivity of peak B cGMP PDE activity” value [8] was “resistant to 100 nM E4021”, the “sensitivity of peak B cGMP PDE activity” value [9] was “resistant to 100 nM E4021” and the “sensitivity of peak B cGMP PDE activity” value [10] was “resistant to 100 nM E4021”. The “Growth % Inhibition at 100 μM” value (HT-29 cells [11]) was <50% and the “competition with cGMP in binding” value [7] was “None of the PDE5 inhibitors showed any competition with cGMP”.

For `CCN(CC)CCSC12CC(=O)OC1(C)/C(=C/c1ccc(S(C)(=O)=O)cc1)c1ccc(F)cc12` (racemic) [A, rac-threo-(E)-1-(N,N′-diethylaminoethanethio)-1-(butan-1′,4′-olido)-[3′,4′:1,2]-6-fluoro-2-methyl-3-(p-methylsulfonylbenzylidene)-indan], the “cGMP PDE % Inhibition at 10 μM” value [2] was <25%, the “Growth % Inhibition at 100 μM” value (HT-29 cells [11]) was 68% and the “Fold induction at 100 μM (apoptosis)” value [12] was <2.0 fold. The “COX % Inhibition at 100 μM” value ([13]; 100 μM) was <25%.

In the case of `CC1=C(CC(=O)O)c2cc(F)ccc2/C1=C\c1ccc(S(C)(=O)=O)cc1` [Exisulind, 5-fluoro-2-methyl-1-(p-methylsulfonylbenzylidene)-3-indenylacetic acid], the “cGMP PDE % Inhibition at 10 μM” value [2] is reported as 39%, the “inhibition of formation of premalignant lesions” value [6] is reported as “effectively inhibit the formation of premalignant lesions” and the “PKG activity relative to control” value [14] is reported as “PKG activation occurred”. The “reduction of expression of β-catenin” value (β-catenin in SW480 cells) was 50%, the dose-limiting adverse events (patients; human, in vivo) was “elevations in liver function tests (LFTs)” and the “safety issues in clinical trials” value (patients; human, in vivo) was “No outstanding safety issues have been demonstrated”. The “apoptosis rates in paired biopsies” value (patients; polyp and normal colonic tissues in APC patients) was “increased apoptosis rates in polyp, but not normal colonic tissues”, the “competition with cGMP in binding” value [7] was “None of the PDE5 inhibitors showed any competition with cGMP” and the IC50 [13] was > 10 mM.
